Laboratory results reported in PubChem BioAssay AID180 (DTP/NCI, 2004).
“And” between values parts separate entries of the source, which are not always exact repeats. Equal entries are not always repeated.

Tested on: BDF1 mice, Adenocarcinoma 755 s.c., tumor weight T/C
Assay: NCI In Vivo Anticancer Drug Screen. Data for tumor model Adenocarcinoma 755 (subcutaneous) in B6D2F1 (BDF1) mice
Conditions: endpoint: mean tumor weight, higher = larger tumour
In short: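 Compound activity was tested in mice carrying transplanted tumors. Survival or tumor size was measured, and each value is the treated-group measurement divided by that of the vehicle-treated control group (T/C).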

[1] = dose: 100.0 mg/kg/injection, schedule: Q01DX011 (ip), vehicle: carboxymethylcellulose (CMC)

SMILES: CSc1ncnc2nc[nH]c12
- T/C (dose: 0.5 mg/kg/injection, schedule: Q#A X022 (ip), vehicle: carboxymethylcellulose (CMC)): 64 % of control
- T/C (dose: 1.0 mg/kg/injection, schedule: Q01DX011 (im), vehicle: carboxymethylcellulose (CMC)): 99 % of control
- T/C (dose: 1.0 mg/kg/injection, schedule: Q01DX011 (oral), vehicle: carboxymethylcellulose (CMC)): 58 % of control
- T/C (dose: 1.0 mg/kg/injection, schedule: Q01DX011 (sc), vehicle: carboxymethylcellulose (CMC)): 58 % of control
- T/C (dose: 1.5 mg/kg/injection, schedule: Q01DX011 (ip), vehicle: carboxymethylcellulose (CMC)): 50 % of control
- T/C (dose: 2.5 mg/kg/injection, schedule: Q#A X022 (ip), vehicle: carboxymethylcellulose (CMC)): 46 % of control
- T/C (dose: 3.0 mg/kg/injection, schedule: Q01DX011 (ip), vehicle: carboxymethylcellulose (CMC)): 82 % of control
- T/C (dose: 5.0 mg/kg/injection, schedule: Q01DX011 (im), vehicle: carboxymethylcellulose (CMC)): 89 % of control
- T/C (dose: 5.0 mg/kg/injection, schedule: Q01DX011 (oral), vehicle: carboxymethylcellulose (CMC)): 5 % of control and 26 % of control
- T/C (dose: 5.0 mg/kg/injection, schedule: Q01DX011 (sc), vehicle: carboxymethylcellulose (CMC)): 60 % of control
- T/C (dose: 5.0 mg/kg/injection, schedule: Q03DX004 (ip), vehicle: carboxymethylcellulose (CMC)): 70 % of control
- T/C (dose: 5.0 mg/kg/injection, schedule: Q#A X022 (ip), vehicle: carboxymethylcellulose (CMC)): 40 % of control
- T/C (dose: 6.0 mg/kg/injection, schedule: Q01DX011 (ip), vehicle: carboxymethylcellulose (CMC)): 28 % of control
- T/C (dose: 7.5 mg/kg/injection, schedule: Q#A X022 (ip), vehicle: carboxymethylcellulose (CMC)): 40 % of control
- T/C (dose: 10.0 mg/kg/injection, schedule: Q01DX001 (ip), vehicle: carboxymethylcellulose (CMC)): 94 % of control
- T/C (dose: 10.0 mg/kg/injection, schedule: Q01DX011 (sc), vehicle: carboxymethylcellulose (CMC)): 30 % of control
- T/C (dose: 10.0 mg/kg/injection, schedule: Q03DX004 (ip), vehicle: carboxymethylcellulose (CMC)): 86 % of control
- T/C (dose: 12.0 mg/kg/injection, schedule: Q01DX011 (ip), vehicle: carboxymethylcellulose (CMC)): 13 % of control
- T/C (dose: 12.5 mg/kg/injection, schedule: Q#A X022 (ip), vehicle: carboxymethylcellulose (CMC)): 4 % of control
- T/C (dose: 15.0 mg/kg/injection, schedule: Q01DX011 (im), vehicle: carboxymethylcellulose (CMC)): 8 % of control
- T/C (dose: 15.0 mg/kg/injection, schedule: Q01DX011 (oral), vehicle: carboxymethylcellulose (CMC)): 5 % of control
- T/C (dose: 15.0 mg/kg/injection, schedule: Q01DX011 (sc), vehicle: carboxymethylcellulose (CMC)): 4 % of control
- T/C (dose: 25.0 mg/kg/injection, schedule: Q01DX001 (ip), vehicle: carboxymethylcellulose (CMC)): 53 % of control
- T/C (dose: 25.0 mg/kg/injection, schedule: Q01DX006 (iv), vehicle: carboxymethylcellulose (CMC)): 36 % of control
- T/C (dose: 25.0 mg/kg/injection, schedule: Q01DX011 (im), vehicle: carboxymethylcellulose (CMC)): 6 % of control
- T/C (dose: 25.0 mg/kg/injection, schedule: Q01DX011 (ip), vehicle: carboxymethylcellulose (CMC)): 1 % of control
- T/C (dose: 25.0 mg/kg/injection, schedule: Q01DX011 (oral), vehicle: carboxymethylcellulose (CMC)): 11 % of control
- T/C (dose: 25.0 mg/kg/injection, schedule: Q03DX004 (ip), vehicle: carboxymethylcellulose (CMC)): 82 % of control
- T/C (dose: 25.0 mg/kg/injection, schedule: Q#A X022 (ip), vehicle: carboxymethylcellulose (CMC)): 2 % of control
- T/C (dose: 50.0 mg/kg/injection, schedule: Q01DX001 (ip), vehicle: carboxymethylcellulose (CMC)): 41 % of control
- T/C (dose: 50.0 mg/kg/injection, schedule: Q01DX006 (iv), vehicle: carboxymethylcellulose (CMC)): 37 % of control
- T/C (dose: 50.0 mg/kg/injection, schedule: Q01DX011 (ip), vehicle: carboxymethylcellulose (CMC)): 1 % of control
- T/C (dose: 50.0 mg/kg/injection, schedule: Q01DX011 (oral), vehicle: carboxymethylcellulose (CMC)): 1 % of control and 3 % of control
- T/C (dose: 50.0 mg/kg/injection, schedule: Q03DX004 (ip), vehicle: carboxymethylcellulose (CMC)): 80 % of control
- T/C (dose: 50.0 mg/kg/injection, schedule: Q#A X022 (ip), vehicle: carboxymethylcellulose (CMC)): 2 % of control
- T/C (dose: 75.0 mg/kg/injection, schedule: Q01DX001 (ip), vehicle: carboxymethylcellulose (CMC)): 80 % of control
- T/C (dose: 75.0 mg/kg/injection, schedule: Q03DX004 (ip), vehicle: carboxymethylcellulose (CMC)): 14 % of control
- T/C (dose: 100.0 mg/kg/injection, schedule: Q01DX001 (ip), vehicle: carboxymethylcellulose (CMC)): 46 % of control
- T/C (dose: 100.0 mg/kg/injection, schedule: Q01DX006 (iv), vehicle: carboxymethylcellulose (CMC)): 21 % of control
- T/C [1]: 1 % of control
- T/C (dose: 100.0 mg/kg/injection, schedule: Q01DX011 (oral), vehicle: carboxymethylcellulose (CMC)): 5 % of control
- T/C (dose: 125.0 mg/kg/injection, schedule: Q01DX001 (ip), vehicle: carboxymethylcellulose (CMC)): 37 % of control
- T/C (dose: 150.0 mg/kg/injection, schedule: Q03DX004 (ip), vehicle: carboxymethylcellulose (CMC)): 2 % of control
- T/C (dose: 200.0 mg/kg/injection, schedule: Q01DX006 (iv), vehicle: carboxymethylcellulose (CMC)): 4 % of control
- T/C (dose: 375.0 mg/kg/injection, schedule: Q01DX001 (ip), vehicle: carboxymethylcellulose (CMC)): 53 % of control

SMILES: CC1(C)O[C@@H]2C[C@H]3[C@@H]4CCC5=CC(=O)CC[C@]5(C)[C@@]4(F)[C@@H](O)C[C@]3(C)[C@]2(C(=O)CO)O1
- T/C (dose: 0.3 mg/kg/injection, schedule: Q01DX011 (sc), vehicle: steriod suspending solution): 60 % of control
- T/C (dose: 0.7 mg/kg/injection, schedule: Q01DX011 (sc), vehicle: steriod suspending solution): 42 % of control
- T/C (dose: 0.75 mg/kg/injection, schedule: Q01DX011 (sc), vehicle: steriod suspending solution): 82 % of control
- T/C (dose: 6.0 mg/kg/injection, schedule: Q01DX011 (sc), vehicle: steriod suspending solution): 36 % of control
- T/C (dose: 6.25 mg/kg/injection, schedule: Q01DX011 (sc), vehicle: steriod suspending solution): 41 % of control
- T/C (dose: 12.0 mg/kg/injection, schedule: Q01DX011 (sc), vehicle: steriod suspending solution): 16 % of control
- T/C (dose: 12.5 mg/kg/injection, schedule: Q01DX011 (sc), vehicle: steriod suspending solution): 31 % of control
- T/C (dose: 24.0 mg/kg/injection, schedule: Q01DX011 (sc), vehicle: steriod suspending solution): 8 % of control (2×) and 14 % of control
- T/C (dose: 25.0 mg/kg/injection, schedule: Q01DX011 (sc), vehicle: steriod suspending solution): 20 % of control
- T/C (dose: 48.0 mg/kg/injection, schedule: Q01DX011 (sc), vehicle: steriod suspending solution): 8 % of control

SMILES: O=S(=O)(O)C(Nc1ccccc1)c1ccccc1 (stereo unspecified)
- T/C (dose: 20.0 mg/kg/injection, schedule: Q01DX011 (ip), vehicle: carboxymethylcellulose (CMC)): 119 % of control
- T/C (dose: 40.0 mg/kg/injection, schedule: Q01DX011 (ip), vehicle: carboxymethylcellulose (CMC)): 91 % of control
- T/C (dose: 80.0 mg/kg/injection, schedule: Q01DX011 (ip), vehicle: carboxymethylcellulose (CMC)): 70 % of control

SMILES: NNC(=O)c1ccncc1
- T/C (dose: 15.13 mg/kg/injection, schedule: Q01DX011 (ip), vehicle: carboxymethylcellulose (CMC)): 116 % of control
- T/C (dose: 17.62 mg/kg/injection, schedule: Q01DX011 (ip), vehicle: carboxymethylcellulose (CMC)): 160 % of control
- T/C (dose: 19.25 mg/kg/injection, schedule: Q01DX011 (ip), vehicle: carboxymethylcellulose (CMC)): 112 % of control
- T/C (dose: 30.25 mg/kg/injection, schedule: Q01DX011 (ip), vehicle: carboxymethylcellulose (CMC)): 109 % of control
- T/C (dose: 38.5 mg/kg/injection, schedule: Q01DX011 (ip), vehicle: carboxymethylcellulose (CMC)): 78 % of control
- T/C (dose: 60.5 mg/kg/injection, schedule: Q01DX011 (ip), vehicle: carboxymethylcellulose (CMC)): 121 % of control
- T/C (dose: 70.5 mg/kg/injection, schedule: Q01DX011 (ip), vehicle: carboxymethylcellulose (CMC)): 178 % of control
- T/C (dose: 77.0 mg/kg/injection, schedule: Q01DX011 (ip), vehicle: carboxymethylcellulose (CMC)): 122 % of control
- T/C (dose: 121.0 mg/kg/injection, schedule: Q01DX011 (ip), vehicle: carboxymethylcellulose (CMC)): 100 % of control
- T/C (dose: 141.0 mg/kg/injection, schedule: Q01DX011 (ip), vehicle: carboxymethylcellulose (CMC)): 202 % of control

SMILES: CCOc1ccc2nc(S(N)(=O)=O)sc2c1
- T/C (dose: 50.0 mg/kg/injection, schedule: Q01DX011 (ip), vehicle: methylcellulose (MC)): 60 % of control
- T/C [1]: 23 % of control and 30 % of control
- T/C (dose: 100.0 mg/kg/injection, schedule: Q01DX011 (ip), vehicle: methylcellulose (MC)): 89 % of control
- T/C (dose: 200.0 mg/kg/injection, schedule: Q01DX011 (ip), vehicle: carboxymethylcellulose (CMC)): 13 % of control
- T/C (dose: 400.0 mg/kg/injection, schedule: Q01DX011 (ip), vehicle: methylcellulose (MC)): 19 % of control

SMILES: COC1CC(O)C(COS(C)(=O)=O)O1 (stereo unspecified)
- T/C (dose: 25.0 mg/kg/injection, schedule: Q01DX011 (ip), vehicle: saline): 100 % of control
- T/C (dose: 75.0 mg/kg/injection, schedule: Q01DX011 (ip), vehicle: saline): 114 % of control
- T/C (dose: 225.0 mg/kg/injection, schedule: Q01DX011 (ip), vehicle: saline): 113 % of control
